From patent US12122774B2, “Compounds as MYT1 inhibitors” (WIGEN BIOMEDICINE TECHNOLOGY (SHANGHAI) CO., LTD., priority 2022, dated 2024)
Values after ≈ are worked out from the molar mass of the structure shown. Each block holds one compound with its values, some of them ahead of it.

What was measured:
MIA PaCa-2 cells [1] = assay: In vitro anti-proliferative activity against MIA PaCa-2 cells (compound alone); assay type: cell-based; conditions: intracellular ATP content
Procedure: (§1) MIA PaCa-2 cells were seeded on a 384-well plate at 3000 cells/well. After overnight adherence culture, DMSO or the compounds serially diluted 1:5 from 10 µM were added. The viability was assessed 72 h after dosing by measuring the intracellular ATP content. The inhibition percentage of viable cells by the compounds was calculated by comparing with the DMSO group, and the IC50 value was calculated.

[2] = In vitro solubility experiment; assay type: physicochemical; conditions: for solubility at 0.5 h: thermodynamic from solid
Procedure: (§2) Preparation of a standard curve: 10.01 mg of sample was weighed out and placed in a volumetric flask, and the volume was brought to 10 mL with acetonitrile/water (v/v, 9/1) to prepare 1.001 mg/mL of standard solution; the standard solution was then serially diluted to 0.5005 mg/mL, 0.1001 mg/mL, 0.05005 mg/mL, 0.01001 mg/mL, and 0.001001 mg/mL to generate the standard curve, and a linear equation was fitted by taking the peak area of the sample as a vertical axis and the concentration as a horizontal axis. Solubility and stability test: 15 mg of sample was added to 3 mL of vehicle (FaSSIF, FeSSIF, SGF, or water) to prepare a corresponding suspension at a target concentration of 5 mg/mL. The prepared suspension was stirred on a shaker (800 rpm) at 37° C. for 0.5 h, and the suspension was then filtered. The filtrate was diluted with a diluent to a corresponding multiple so that the peak height could not exceed the standard curve, and the solubility and purity were detected using HPLC.

MIA PaCa-2 cells [3] = assay: In vitro anti-proliferative activity in combination with gemcitabine against MIA PaCa-2 cells; assay type: cell-based; conditions: for IC50: read-out: Anti-proliferative activity against MIA PaCa-2 cells (20 nM gemcitabine) IC50, with 20 nM gemcitabine, 72 h, intracellular ATP content
Procedure: as §1, with “cells/well, and 20 nM gemcitabine was added.” for “cells/well.”, “1000 nM” for “10 µM”

in vitro = conditions: dog, MDCK
Procedure: (§3) In vitro passive permeability or the ability to serve as a P-glycoprotein (P-gp) transport substrate was tested using MDCK cells (MDCK wild type) or MDCK cells stably transduced with MDR1 (MDCK-MDR1), respectively. The permeability experiment was performed in duplicate in a transwell system at a single concentration (5 μM). The cells were incubated for 90 min. Apical-to-basolateral (A to B, A-B) transport and basolateral-to-apical (B to A, B-A) transport of the corresponding compound were determined, and the permeation rate (apparent permeability) (Papp×10^−6 cm/sec) and efflux ratio (Papp (B-A)/Papp (A-B)) of the test compound were calculated.

[4] = In vitro solubility experiment; assay type: physicochemical; conditions: organic solvent or mixture, thermodynamic from solid
[5] = In vivo pharmacokinetic experiment; design: species or system CD-1 female mice; conditions: mice
Procedure: CD-1 female mice aged 7 to 10 weeks were intravenously administered and orally administered at a dose of 2 mg/kg and 10 mg/kg, respectively. The mice were fasted for at least 12 h before the administration and given food 4 h after the administration, and they were given ad libitum access to water during the experiment. On the day of the experiment, animals in the intravenous group were administered the corresponding compound by single injection via the tail vein at an administration volume of 10 mL/kg. Animals in the oral group were administered the corresponding compound by single intragastric injection at an administration volume of 10 mL/kg. The animals were weighed before administration, and the administration volume was calculated according to the body weight. The sample collection time was 0.083 h (injection group), 0.167 h, 0.5 h, 1 h, 2 h, 4 h, 8 h, and 24 h. About 200 μL of whole blood was collected through the submaxillary venous plexus at each time point and used to prepare plasma for concentration determination by high-performance liquid chromatography-tandem mass spectrometry (LC-MS/MS). All animals were euthanized with CO2 anesthesia after the PK samples were collected at the last time point. The plasma concentrations were processed using a non-compartmental model of Phoenix WinNonlin™ version 8.3 (Certara) pharmacokinetic software, and the pharmacokinetic parameters were calculated using a linear-log trapezoidal method.

[6] = In vitro stability experiment (HPLC purity of filtrate); assay type: physicochemical
Procedure: as §2

[7] = test system: MDCK cells stably transduced with MDR1 (MDCK-MDR1); assay: in vitro; conditions: MDCK-MDR1
Procedure: as §3

[8] = test system: P-glycoprotein (P-gp, MDR1); assay: in vitro; conditions: dog
Procedure: as §3

Recombinant MYT1 protein = biological target: T1, Recombinant MYT1 protein (Homo sapiens, UniProt Q99640); assay: In vitro assay for inhibiting MYT1 kinase activity (ADP-GLO); assay type: biochemical; conditions: 10 μM ATP, read-out: Inhibitory activity against recombinant protein MYT1 IC50
T1 sequence (Q99640 1-499): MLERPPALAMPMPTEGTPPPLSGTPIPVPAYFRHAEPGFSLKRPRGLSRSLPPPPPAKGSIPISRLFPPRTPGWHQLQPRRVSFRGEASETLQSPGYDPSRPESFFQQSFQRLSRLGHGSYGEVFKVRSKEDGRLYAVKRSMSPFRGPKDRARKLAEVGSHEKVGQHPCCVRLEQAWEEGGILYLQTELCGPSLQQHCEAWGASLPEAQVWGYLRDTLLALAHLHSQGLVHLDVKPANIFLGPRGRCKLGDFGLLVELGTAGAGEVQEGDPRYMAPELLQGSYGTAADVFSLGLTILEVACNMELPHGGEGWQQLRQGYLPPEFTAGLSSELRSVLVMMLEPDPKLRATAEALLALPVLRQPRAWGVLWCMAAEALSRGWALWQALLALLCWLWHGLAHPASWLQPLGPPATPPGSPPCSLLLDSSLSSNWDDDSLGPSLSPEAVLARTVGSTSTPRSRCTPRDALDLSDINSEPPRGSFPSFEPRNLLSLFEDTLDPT
Procedure: Recombinant MYT1 protein and the compounds were pre-incubated at room temperature for 15 min, and 10 μM ATP was then added to start the reaction. The mixture was incubated at room temperature for another 60 min, and the ADP-GLO reagent from Promega was then added. The resulting mixture was incubated in the dark for 40 min, a detection solution was then added, and the mixture was incubated for another 45-60 min. The chemiluminescence was determined using ENVISION. The inhibition rate and IC50 were calculated compared to the DMSO group.

[9] = FaSSIF, initial pH 6.52, 37° C.
[10] = FeSSIF, initial pH 4.98, 37° C.
[11] = female, CD-1, mouse, plasma, iv, injection 2 mg/kg
[12] = female, CD-1, mouse, plasma, oral administration 10 mg/kg

Compound: Cc1cc2c(C(N)=O)c(N)n(-c3c(C)c(O)cc(F)c3C)c2nc1C (single isomer, unassigned) [Compound 2]
Solubility compared to RP-6306 ([2]; FaSSIF, FeSSIF, SGF, water, methanol, and tetrahydrofuran, in words): higher solubility in various vehicles
solubility at 0.5 h ([2]; simulated gastric fluid, SGF, initial pH 1.2, 37° C.): 4860 µg/mL (≈ 14.2 mM)
solubility at 0.5 h [2, 9]: 61 µg/mL (≈ 0.178 mM)
solubility at 0.5 h [2, 10]: 327 µg/mL (≈ 0.955 mM)
solubility at 0.5 h ([2]; Water, initial pH 7.7, 37° C.): 270 µg/mL (≈ 0.789 mM)
Anti-proliferative activity against MIA PaCa-2 cells in combination with gemcitabine (MIA PaCa-2 cells [3]; in words): stronger anti-proliferative activity than that of RP-6306
IC50 (MIA PaCa-2 cells [3]): 0.018 µM
efflux ratio at 90 min, 5 μM (in vitro): 1.56
Papp A→B at 90 min, 5 µM (in vitro; Papp Mean): 27.1 ×10⁻⁶ cm/s
Papp B→A at 90 min, 5 µM (in vitro; Papp Mean): 42.2 ×10⁻⁶ cm/s
Papp A→B at 90 min, 5 µM (in vitro; Papp Sample - 01): 27.9 ×10⁻⁶ cm/s
Papp B→A at 90 min, 5 µM (in vitro; Papp Sample - 01): 40 ×10⁻⁶ cm/s
Papp A→B at 90 min, 5 µM (in vitro; Papp Sample - 02): 26.3 ×10⁻⁶ cm/s
Papp B→A at 90 min, 5 µM (in vitro; Papp Sample - 02): 44.5 ×10⁻⁶ cm/s
solubility at 0.5 h ([4]; methanol): 40600 µg/mL (≈ 118 mM)
solubility at 0.5 h ([4]; tetrahydrofuran): 6110 µg/mL (≈ 17.9 mM)
AUC(0-t) [5, 11]: 338 ng·h/mL
half-life [5, 11]: 3.32 h
Vd ([5]; female, CD-1, mouse, plasma, iv, injection 2 mg/kg, read-out: Vdss): 6.76 L/kg
AUC(0-t) [5, 12]: 638 ng·h/mL
Cmax [5, 12]: 603 ng/mL
half-life [5, 12]: 3.84 h
Cl ([5]; injection 2 mg/kg): 94.4 mL/min/kg
F % ([5]; oral administration 10 mg/kg): 44.5%
Half-life T1/2 compared to RP-6306 ([5]; in words): longer half-life T1/2 compared to RP-6306
Vdss compared to RP-6306 ([5]; in words): greater increase in Vdss compared to RP-6306
Stability compared to RP-6306 ([6]; FaSSIF, FeSSIF, and water, in words): more stable than RP-6306
HPLC purity 0.5 h [6, 9]: 88.76 %, 220 nm
HPLC purity 0.5 h [6, 10]: 95.98 %, 220 nm
HPLC purity 0.5 h ([6]; SGF, initial pH 1.2, 37° C.): 98.69 %, 220 nm
HPLC purity 0.5 h ([6]; Water, initial pH 7.7, 37° C.): 96.4 %, 220 nm
IC50 (MIA PaCa-2 cells [1]; Homo sapiens, MIA PaCa-2, 72 h): 4.32 µM
Permeability compared to RP-6306 [7]: superior permeability to that of RP-6306
efflux ratio at 90 min, 5 μM ([8]; MDCK-MDR1): 1.71
Papp A→B at 90 min, 5 µM ([8]; MDCK-MDR1, Papp Mean): 20.5 ×10⁻⁶ cm/s
Papp B→A at 90 min, 5 µM ([8]; MDCK-MDR1, Papp Mean): 35 ×10⁻⁶ cm/s
Papp A→B at 90 min, 5 µM ([8]; MDCK-MDR1, Papp Sample - 01): 21.1 ×10⁻⁶ cm/s
Papp B→A at 90 min, 5 µM ([8]; MDCK-MDR1, Papp Sample - 01): 35.3 ×10⁻⁶ cm/s
Papp A→B at 90 min, 5 µM ([8]; MDCK-MDR1, Papp Sample - 02): 19.9 ×10⁻⁶ cm/s
Papp B→A at 90 min, 5 µM ([8]; MDCK-MDR1, Papp Sample - 02): 34.8 ×10⁻⁶ cm/s

Compound: Cc1cc2c(C(N)=O)c(N)n(-c3c(C)c(O)cc(F)c3C)c2nc1C [Compound 3]
IC50 (MIA PaCa-2 cells [3]): ≥ 1.23 µM
IC50 (MIA PaCa-2 cells [1]; Homo sapiens, MIA PaCa-2, 72 h): > 10 µM

Compound: Cc1cc2c(C(N)=O)c(N)n(-c3c(C)ccc(O)c3C)c2nc1C#N [Compound 12]
IC50 (MIA PaCa-2 cells [1]; Homo sapiens, MIA PaCa-2, 72 h): > 10 µM

Compound: Cc1cc2c(C(N)=O)c(N)n(-c3c(C)c(O)cc4c3CCCC4)c2nc1C [Compound 127]
IC50 (Recombinant MYT1 protein): 0.2 to 0.5 µM

Continued, values first:

IC50 (MIA PaCa-2 cells [1]; 72 h): > 10 µM
Compound: Cc1cc2c(C(N)=O)c(N)n(-c3c(C)c(O)cc4c3CCC4)c2nc1C (atropisomer, axis not shown) [Compound 117]

IC50 (MIA PaCa-2 cells [1]; Homo sapiens, MIA PaCa-2, 72 h): > 10 µM
Compound: Cc1cc2c(C(N)=O)c(N)n(-c3c(C)c(O)cc4c3CCC4)c2nc1C [Compound 116]
